Active and inactive are the calls of the source.
Key:
[1] = biological target: DNA dC->dU-editing enzyme APOBEC-3G (Homo sapiens, UniProt Q9HC16); assay: Dose Response confirmation of small molecule APOBEC3G DNA Deaminase Inhibitors via a fluorescence-based single-stranded DNA deaminase assay. [Related pubchem assays (depositor defined):AID493012, AID493028]; type: functional
Prothrombin = Prothrombin (Homo sapiens, UniProt P00734); assay: Thrombin 1536 HTS Dose Response Confirmation. [Related pubchem assays: 1046 (Thrombin 1536 HTS; hits were confirmed in this assay)]; type: functional
Aminopeptidase N = biological target: T1, Aminopeptidase N (Plasmodium falciparum FcB1/Columbia, UniProt O96935); assay: malaria alanyl aminopeptidase activity blockers – biochemical, fluorogenic H-Leu-NHMec substrate, 1536-well (AID 1445); design: species or system Plasmodium falciparum 3D7, 3D7
T1 sequence (O96935 whole entry): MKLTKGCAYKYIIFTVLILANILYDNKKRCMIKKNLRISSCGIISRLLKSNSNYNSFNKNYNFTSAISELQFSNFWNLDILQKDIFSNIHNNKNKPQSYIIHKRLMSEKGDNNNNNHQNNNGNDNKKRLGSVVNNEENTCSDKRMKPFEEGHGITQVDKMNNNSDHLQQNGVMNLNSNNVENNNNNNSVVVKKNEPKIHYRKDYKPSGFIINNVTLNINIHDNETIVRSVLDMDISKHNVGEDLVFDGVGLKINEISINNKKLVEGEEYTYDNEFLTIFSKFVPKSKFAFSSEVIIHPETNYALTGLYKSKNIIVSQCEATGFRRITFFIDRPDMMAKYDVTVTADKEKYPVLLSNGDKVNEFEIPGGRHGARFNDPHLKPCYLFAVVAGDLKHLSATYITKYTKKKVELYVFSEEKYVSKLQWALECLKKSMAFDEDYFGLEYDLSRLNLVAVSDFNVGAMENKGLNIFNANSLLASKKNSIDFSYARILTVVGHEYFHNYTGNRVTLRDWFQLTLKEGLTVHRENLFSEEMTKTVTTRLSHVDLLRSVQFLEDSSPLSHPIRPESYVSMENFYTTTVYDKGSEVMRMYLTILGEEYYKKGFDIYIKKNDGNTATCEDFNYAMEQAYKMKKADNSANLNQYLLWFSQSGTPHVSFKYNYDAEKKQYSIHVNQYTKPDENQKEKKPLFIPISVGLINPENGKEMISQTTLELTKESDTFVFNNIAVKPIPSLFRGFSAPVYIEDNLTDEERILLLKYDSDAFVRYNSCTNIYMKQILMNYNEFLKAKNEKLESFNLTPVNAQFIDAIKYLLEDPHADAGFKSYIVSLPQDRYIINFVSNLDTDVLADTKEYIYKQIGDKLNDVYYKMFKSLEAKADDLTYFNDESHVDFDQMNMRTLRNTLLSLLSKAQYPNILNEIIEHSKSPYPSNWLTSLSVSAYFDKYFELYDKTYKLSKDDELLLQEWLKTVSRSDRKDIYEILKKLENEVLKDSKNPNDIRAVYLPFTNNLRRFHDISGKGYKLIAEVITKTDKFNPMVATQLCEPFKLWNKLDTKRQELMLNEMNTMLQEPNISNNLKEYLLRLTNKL

[2] = biological target: T2, Zinc finger protein mex-5 (Caenorhabditis elegans, UniProt Q9XUB2); assay: potency of MEX-5 RNA-binding blockers – biochemical, C. elegans, fluorescence polarization, dose response (AID 1960)
T2 sequence (Q9XUB2 whole entry): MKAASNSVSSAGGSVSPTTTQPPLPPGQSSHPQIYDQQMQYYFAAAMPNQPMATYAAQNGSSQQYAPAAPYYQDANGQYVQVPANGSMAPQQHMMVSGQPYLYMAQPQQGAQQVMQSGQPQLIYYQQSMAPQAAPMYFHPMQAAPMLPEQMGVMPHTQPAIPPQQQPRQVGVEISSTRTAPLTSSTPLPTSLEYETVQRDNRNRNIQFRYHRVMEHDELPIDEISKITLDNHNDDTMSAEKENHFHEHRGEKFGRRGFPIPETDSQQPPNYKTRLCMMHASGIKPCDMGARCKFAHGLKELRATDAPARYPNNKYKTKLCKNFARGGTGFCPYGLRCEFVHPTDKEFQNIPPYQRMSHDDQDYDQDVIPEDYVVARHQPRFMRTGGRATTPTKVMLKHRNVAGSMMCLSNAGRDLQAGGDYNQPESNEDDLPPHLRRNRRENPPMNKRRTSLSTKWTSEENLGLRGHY

[3] = viability of uninfected HEp-2 cells – cell-based, HTS, cytotoxicity control for RSV inhibitor project, dose response (AID 2410); type: functional; conditions: human respiratory syncytial virus
[4] = biological target: T3, RNA-binding protein pos-1 (Caenorhabditis elegans, UniProt G5EF15); assay: disruptors of C. elegans POS-1 RNA interaction – biochemical, fluorescence polarization, dose response (AID 1964);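 note: purified POS-1 fused to maltose binding protein made in E. coli; potency of compounds blocking POS-1 binding to fluorescent RNA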
T3 sequence (G5EF15 whole entry): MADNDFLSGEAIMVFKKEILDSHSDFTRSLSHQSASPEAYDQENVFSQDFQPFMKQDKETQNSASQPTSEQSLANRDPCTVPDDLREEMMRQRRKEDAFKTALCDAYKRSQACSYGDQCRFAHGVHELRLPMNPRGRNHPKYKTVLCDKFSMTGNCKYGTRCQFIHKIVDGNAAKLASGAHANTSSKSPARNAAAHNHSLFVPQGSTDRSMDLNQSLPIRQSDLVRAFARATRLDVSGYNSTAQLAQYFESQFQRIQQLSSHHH

Leucine aminopeptidase = biological target: T4, Leucine aminopeptidase (Plasmodium falciparum 3D7, UniProt Q8IL11); assay: P. falciparum M17LAP inhibitors, primary screen, biochemical, fluorogenic H-Leu-NHMec substrate, 1536-well (AID 1619); type: functional
T4 sequence (Q8IL11 whole entry): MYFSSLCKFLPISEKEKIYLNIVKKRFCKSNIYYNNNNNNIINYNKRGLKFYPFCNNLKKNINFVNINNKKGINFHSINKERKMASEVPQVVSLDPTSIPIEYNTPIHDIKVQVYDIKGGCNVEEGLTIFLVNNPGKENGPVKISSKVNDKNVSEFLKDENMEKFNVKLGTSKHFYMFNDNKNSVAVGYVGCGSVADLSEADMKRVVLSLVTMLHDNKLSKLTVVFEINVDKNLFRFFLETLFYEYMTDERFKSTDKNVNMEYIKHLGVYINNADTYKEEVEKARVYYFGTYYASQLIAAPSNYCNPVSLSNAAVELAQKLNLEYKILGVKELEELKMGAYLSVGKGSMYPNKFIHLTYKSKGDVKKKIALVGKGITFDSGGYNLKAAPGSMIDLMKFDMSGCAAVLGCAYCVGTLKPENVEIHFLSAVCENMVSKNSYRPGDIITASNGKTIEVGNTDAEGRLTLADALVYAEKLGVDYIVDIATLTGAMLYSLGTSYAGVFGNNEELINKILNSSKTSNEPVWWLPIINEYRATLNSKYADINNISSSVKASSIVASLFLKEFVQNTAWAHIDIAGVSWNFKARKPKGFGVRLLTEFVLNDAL

[5] = P. falciparum Dd2 growth inhibitors, dose response, SYBR Green, cherry-picked samples (AID 1159567); type: functional, cell-based
Fatty acid synthase [6] = biological target: T5, Fatty acid synthase (Homo sapiens, UniProt P49327); assay: inhibition of human FAS-TE enzyme activity – biochemical, endpoint fluorescence intensity, uHTS hits, dose response (AID 624327); type: functional;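 note: fluorescence from hydrolysis of an O-methyl fluorescein acyl ester substrate by the enzyme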
T5 sequence (P49327 whole entry): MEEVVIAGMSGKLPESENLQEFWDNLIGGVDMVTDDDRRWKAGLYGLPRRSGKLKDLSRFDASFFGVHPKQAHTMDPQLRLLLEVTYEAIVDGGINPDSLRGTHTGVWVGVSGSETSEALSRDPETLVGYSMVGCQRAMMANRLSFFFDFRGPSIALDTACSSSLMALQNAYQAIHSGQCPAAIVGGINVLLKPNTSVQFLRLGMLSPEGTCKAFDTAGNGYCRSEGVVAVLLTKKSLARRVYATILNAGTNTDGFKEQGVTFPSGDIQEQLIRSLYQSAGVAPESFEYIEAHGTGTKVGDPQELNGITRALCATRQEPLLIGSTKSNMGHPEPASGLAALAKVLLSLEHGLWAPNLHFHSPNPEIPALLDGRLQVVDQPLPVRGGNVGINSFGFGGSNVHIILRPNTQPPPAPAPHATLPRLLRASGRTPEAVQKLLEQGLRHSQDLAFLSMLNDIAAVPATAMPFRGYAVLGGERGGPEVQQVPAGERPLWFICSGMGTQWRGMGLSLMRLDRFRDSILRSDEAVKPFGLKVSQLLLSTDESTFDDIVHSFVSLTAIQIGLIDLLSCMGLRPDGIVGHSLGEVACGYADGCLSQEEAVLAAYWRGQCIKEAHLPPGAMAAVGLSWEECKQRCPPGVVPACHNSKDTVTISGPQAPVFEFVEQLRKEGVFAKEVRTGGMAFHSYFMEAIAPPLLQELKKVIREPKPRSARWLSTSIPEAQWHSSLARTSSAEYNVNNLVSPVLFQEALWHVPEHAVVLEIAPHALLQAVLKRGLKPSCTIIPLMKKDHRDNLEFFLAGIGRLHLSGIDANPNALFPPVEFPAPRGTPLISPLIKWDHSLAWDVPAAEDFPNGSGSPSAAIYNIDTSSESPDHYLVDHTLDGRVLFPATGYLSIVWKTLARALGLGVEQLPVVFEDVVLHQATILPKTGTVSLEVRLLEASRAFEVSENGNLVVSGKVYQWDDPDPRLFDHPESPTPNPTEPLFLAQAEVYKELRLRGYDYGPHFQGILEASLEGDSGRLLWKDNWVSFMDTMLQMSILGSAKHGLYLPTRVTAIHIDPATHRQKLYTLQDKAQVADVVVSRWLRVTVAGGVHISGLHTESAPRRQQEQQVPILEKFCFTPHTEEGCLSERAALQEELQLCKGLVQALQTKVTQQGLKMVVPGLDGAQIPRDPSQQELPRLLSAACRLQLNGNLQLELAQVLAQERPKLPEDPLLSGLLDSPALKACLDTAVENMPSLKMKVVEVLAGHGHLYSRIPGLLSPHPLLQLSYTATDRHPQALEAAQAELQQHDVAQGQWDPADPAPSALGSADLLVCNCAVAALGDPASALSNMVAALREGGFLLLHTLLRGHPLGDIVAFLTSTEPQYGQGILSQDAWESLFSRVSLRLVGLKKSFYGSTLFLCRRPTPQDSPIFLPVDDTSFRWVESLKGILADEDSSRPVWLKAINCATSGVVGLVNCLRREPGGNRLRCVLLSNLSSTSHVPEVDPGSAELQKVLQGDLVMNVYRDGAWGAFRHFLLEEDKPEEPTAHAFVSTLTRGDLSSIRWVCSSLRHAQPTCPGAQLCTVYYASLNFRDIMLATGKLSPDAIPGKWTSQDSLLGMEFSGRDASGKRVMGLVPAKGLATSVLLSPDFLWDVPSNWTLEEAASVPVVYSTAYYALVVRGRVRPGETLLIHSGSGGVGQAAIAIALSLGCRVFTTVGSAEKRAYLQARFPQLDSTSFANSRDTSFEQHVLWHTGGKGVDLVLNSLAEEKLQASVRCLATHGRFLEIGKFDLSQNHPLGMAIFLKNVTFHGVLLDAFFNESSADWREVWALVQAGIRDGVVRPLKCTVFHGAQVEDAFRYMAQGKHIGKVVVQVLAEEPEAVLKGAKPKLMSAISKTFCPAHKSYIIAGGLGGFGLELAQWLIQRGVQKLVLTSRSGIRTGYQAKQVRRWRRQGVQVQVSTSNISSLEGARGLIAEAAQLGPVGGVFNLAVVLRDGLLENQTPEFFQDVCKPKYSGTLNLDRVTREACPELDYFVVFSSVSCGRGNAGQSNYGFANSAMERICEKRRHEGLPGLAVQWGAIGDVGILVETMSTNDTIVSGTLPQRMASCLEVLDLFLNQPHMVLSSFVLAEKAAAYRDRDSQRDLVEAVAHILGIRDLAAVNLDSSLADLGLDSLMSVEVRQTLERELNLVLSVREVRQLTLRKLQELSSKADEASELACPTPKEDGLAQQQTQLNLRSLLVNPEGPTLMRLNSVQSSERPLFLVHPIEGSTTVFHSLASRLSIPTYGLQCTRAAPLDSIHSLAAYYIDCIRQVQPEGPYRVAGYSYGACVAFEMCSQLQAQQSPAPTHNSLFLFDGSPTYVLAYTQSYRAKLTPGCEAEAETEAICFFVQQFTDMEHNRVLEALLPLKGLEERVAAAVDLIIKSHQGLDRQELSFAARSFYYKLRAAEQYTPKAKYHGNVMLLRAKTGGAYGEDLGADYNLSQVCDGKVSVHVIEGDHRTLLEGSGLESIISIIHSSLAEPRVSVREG

Fatty acid synthase [7] = biological target: T5, Fatty acid synthase; assay: inhibition of human FAS-TE enzyme activity – biochemical, kinetic fluorescence intensity, dose response (AID 624326); type: functional;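 note: rate of fluorescence rise from hydrolysis of a fluorogenic O-methyl fluorescein ester substrate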
Cytochrome P450 3A4 = Cytochrome P450 3A4 (Homo sapiens, UniProt P08684);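 note: CYP3A4 tested as one member of a cytochrome P450 panel screen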
Chain of Cytochrome P450 3A4 (P08684 whole entry): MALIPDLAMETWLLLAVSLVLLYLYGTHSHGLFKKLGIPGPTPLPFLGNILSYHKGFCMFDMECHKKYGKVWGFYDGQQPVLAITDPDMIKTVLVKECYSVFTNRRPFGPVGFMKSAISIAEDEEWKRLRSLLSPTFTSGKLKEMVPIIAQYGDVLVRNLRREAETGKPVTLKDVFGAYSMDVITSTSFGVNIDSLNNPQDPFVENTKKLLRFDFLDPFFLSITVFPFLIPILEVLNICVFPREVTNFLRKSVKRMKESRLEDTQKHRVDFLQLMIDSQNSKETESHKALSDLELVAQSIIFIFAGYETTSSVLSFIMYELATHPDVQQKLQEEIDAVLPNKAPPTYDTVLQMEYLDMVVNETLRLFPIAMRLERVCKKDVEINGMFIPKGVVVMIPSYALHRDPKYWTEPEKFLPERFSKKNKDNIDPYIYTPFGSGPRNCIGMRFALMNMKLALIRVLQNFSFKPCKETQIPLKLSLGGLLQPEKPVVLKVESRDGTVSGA

Nonstructural protein 1 = Nonstructural protein 1 (Influenza A virus, UniProt Q194T2); type: functional, Influenza A virus (A/California/07/2009(H1N1))
Chain of Nonstructural protein 1 (Q194T2 whole entry): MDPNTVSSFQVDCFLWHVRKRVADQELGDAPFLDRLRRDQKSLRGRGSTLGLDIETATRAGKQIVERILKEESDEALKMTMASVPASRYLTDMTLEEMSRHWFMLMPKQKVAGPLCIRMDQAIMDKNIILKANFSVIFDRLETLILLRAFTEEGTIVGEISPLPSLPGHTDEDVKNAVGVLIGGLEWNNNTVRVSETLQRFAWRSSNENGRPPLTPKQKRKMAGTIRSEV

[8] = microbe, parasite or virus in culture; type: functional; conditions: Mycobacterium tuberculosis
[9] = biological target: Glyceraldehyde-3-phosphate dehydrogenase (Homo sapiens, UniProt P04406)
Chain of Glyceraldehyde-3-phosphate dehydrogenase (P04406 whole entry): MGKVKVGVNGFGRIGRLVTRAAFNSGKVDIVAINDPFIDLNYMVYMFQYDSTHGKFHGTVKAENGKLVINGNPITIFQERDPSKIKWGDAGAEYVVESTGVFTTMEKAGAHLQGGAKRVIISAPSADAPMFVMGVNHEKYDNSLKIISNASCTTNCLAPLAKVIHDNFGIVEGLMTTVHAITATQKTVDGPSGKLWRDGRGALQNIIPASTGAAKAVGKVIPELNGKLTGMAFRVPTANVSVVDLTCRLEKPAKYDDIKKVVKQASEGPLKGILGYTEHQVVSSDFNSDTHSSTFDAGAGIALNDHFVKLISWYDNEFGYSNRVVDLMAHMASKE

[10] = biological target: T6, Rac GTPase-activating protein 1 (Homo sapiens, UniProt Q9H0H5); assay: blockers of MgcRacGAP-driven Rac1 GTP hydrolysis – biochemical, ADP Hunter fluorescence, primary and confirmatory, confirmation (AID 624330); type: functional
T6 sequence (Q9H0H5 whole entry): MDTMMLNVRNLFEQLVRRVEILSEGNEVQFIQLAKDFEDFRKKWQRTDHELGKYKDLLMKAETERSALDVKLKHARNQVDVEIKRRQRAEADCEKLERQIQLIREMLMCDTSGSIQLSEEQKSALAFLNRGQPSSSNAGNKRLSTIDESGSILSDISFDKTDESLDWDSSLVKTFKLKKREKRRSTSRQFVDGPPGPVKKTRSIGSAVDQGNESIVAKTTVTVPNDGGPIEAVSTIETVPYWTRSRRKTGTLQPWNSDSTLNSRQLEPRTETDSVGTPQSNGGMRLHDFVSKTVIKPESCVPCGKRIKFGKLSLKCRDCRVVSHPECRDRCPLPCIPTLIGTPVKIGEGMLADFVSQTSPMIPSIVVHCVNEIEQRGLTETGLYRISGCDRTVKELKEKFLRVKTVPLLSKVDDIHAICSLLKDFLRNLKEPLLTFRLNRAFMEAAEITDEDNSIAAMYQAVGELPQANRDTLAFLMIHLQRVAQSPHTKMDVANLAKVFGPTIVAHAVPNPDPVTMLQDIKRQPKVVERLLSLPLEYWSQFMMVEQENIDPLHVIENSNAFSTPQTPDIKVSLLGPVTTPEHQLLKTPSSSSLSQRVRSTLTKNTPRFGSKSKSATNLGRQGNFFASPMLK

[11] = viability loss in HeLa cells – cytotoxicity control for MgcRacGAP inhibitor project, dose response (AID 624300); type: functional
[12] = biological target: FAD-linked sulfhydryl oxidase ALR (Homo sapiens, UniProt P55789); assay: ALR-catalysed DTT oxidation blockers – biochemical, H2O2 detection, luminescence, cherry-pick, dose response (AID 493248)
Chain of FAD-linked sulfhydryl oxidase ALR (P55789 whole entry): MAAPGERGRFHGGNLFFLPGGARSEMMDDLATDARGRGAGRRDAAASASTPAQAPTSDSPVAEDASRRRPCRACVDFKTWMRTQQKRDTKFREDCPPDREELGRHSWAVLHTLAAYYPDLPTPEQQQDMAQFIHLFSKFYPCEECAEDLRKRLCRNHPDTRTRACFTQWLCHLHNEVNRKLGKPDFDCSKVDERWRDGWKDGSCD

[13] = biological target: T7, Heat shock factor protein 1 (Mus musculus, UniProt P38532); assay: decrease of HSF1-responsive luciferase luminescence – cell-based, NIH3T3, dose retest, confirmation (AID 2382); type: functional;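 note: NIH3T3 fibroblasts with HSF1-driven luciferase reporter stressed by proteasome inhibitor MG132; luminescence from HSF1-driven luciferase expression after 8 hours of MG132 stress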
T7 sequence (P38532 whole entry): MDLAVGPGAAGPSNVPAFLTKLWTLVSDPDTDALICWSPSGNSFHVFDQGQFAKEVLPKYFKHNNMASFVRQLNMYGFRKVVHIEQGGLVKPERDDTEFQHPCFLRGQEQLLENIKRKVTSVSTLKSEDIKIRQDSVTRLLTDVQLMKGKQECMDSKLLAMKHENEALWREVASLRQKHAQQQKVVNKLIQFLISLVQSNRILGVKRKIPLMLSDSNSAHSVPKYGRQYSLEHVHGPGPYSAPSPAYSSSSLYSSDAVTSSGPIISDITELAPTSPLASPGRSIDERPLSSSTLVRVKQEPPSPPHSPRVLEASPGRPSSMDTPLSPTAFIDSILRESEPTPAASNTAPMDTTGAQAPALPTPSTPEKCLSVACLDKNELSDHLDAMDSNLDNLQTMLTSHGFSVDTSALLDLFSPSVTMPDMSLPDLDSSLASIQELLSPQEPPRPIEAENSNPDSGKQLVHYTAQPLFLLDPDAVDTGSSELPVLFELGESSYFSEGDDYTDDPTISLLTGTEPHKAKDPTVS

Chain of DNA dC->dU-editing enzyme APOBEC-3G (Q9HC16 whole entry): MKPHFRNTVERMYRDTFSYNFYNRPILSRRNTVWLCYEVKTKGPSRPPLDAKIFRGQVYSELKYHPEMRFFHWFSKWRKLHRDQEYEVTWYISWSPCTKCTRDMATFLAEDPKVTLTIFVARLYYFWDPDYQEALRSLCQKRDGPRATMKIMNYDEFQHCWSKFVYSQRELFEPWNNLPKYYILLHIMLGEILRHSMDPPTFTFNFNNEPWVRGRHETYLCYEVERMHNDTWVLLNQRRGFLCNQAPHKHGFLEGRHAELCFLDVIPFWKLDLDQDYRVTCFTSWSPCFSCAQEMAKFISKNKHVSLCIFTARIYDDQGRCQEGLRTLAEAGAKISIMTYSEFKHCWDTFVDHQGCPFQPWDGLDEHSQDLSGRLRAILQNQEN

O=C(CCCSc1ccc(Cl)cc1)Nc1cc(S(=O)(=O)N2CCOCC2)ccc1O
IC50 [1]: 33.2 µM (active)

O=C(NCc1ccc2c(c1)OCO2)c1cnc2ccc(S(=O)(=O)N3CCOCC3)cc2c1O
IC50 (Prothrombin): 0.845 µM (active)

Cc1ccc2nc3c(nc2c1C)C(O)=C3O
IC50 (Aminopeptidase N): 48.5 µM (active)

CCOC(=O)CCNC(=O)N1CCCC(CNS(=O)(=O)c2cccs2)C1 (stereo not given)
IC50 (Prothrombin): > 50 µM (not active)

CCCC(=O)n1nc(-c2cccnc2)nc1NCc1ccc(OC)cc1
IC50 (Prothrombin): 0.0883 µM (active)

Cc1cccn2c(=O)c3cc(S(=O)(=O)c4ccccc4)c(=N)n(Cc4cccnc4)c3nc12
EC50 [2]: 18.8 µM (inconclusive)
CC50 [3]: > 50 µM (active)
EC50 [4]: 8.88 µM (inconclusive)

Cc1cc(C)n(CCOc2ccc(Cl)cc2Cl)n1
CC50 [3]: > 50 µM (active)

COc1ccc(NC(=O)CC2COc3ccccc3O2)c(OC)c1 (stereo not given)
IC50 (Leucine aminopeptidase): 7.18 µM (active)

COc1ccc2c3c(n(C)c2c1)[C@H](CO)N(C(=O)CC1CC1)CC31CCN(Cc2nccs2)CC1
AC50 [5]: 3.93 µM (active)

O=C(N/N=C/c1coc2ccccc2c1=O)c1cccc([N+](=O)[O-])c1
IC50 (Leucine aminopeptidase): 35.2 µM (active)

O=C(CN1CC(c2ccccc2)CC1=O)N/N=C/c1cc(Br)ccc1O (stereo not given)
IC50 (Aminopeptidase N): 11.8 µM (active)
IC50 (Fatty acid synthase [6]): 3.61 µM (active)
IC50 (Fatty acid synthase [7]): 4.11 µM (active)

CSc1nc(N)nc(-c2cccs2)c1C#N
CC50 [3]: > 25 µM (active)
AC50 (Cytochrome P450 3A4): 25.1 µM (inconclusive)

Cc1ccc(C(c2nnnn2Cc2cccs2)N2CCN(Cc3ccc4c(c3)OCO4)CC2)cc1 (stereo not given)
IC50 (Nonstructural protein 1): > 100 µM (active)
CC50 [8]: > 40 µM (active)

O=C1C(Cl)=C(N2CCN(c3ncccn3)CC2)C(=O)N1c1ccnc(Cl)c1
IC50 [9]: > 50 µM (inconclusive)

COc1cccc(/C=N/NC(=S)Nc2cccc(C(=O)O)c2)c1
IC50 (Leucine aminopeptidase): 15.7 µM (active)

Nc1ccccc1C(=O)N=Nc1[nH]c(N)c2ccccc12
IC50 (Nonstructural protein 1): 20.7 µM (active)

CCOc1cc(S(=O)(=O)NCc2ccc(OC)cc2)c(OCC)cc1-n1cnnn1
IC50 (Prothrombin): > 50 µM (not active)

Cc1cccc(-c2nc3ccccc3c(=O)n2NC(=O)c2cccs2)c1
IC50 (Aminopeptidase N): 44.1 µM (active)

COc1cc(/C=C/C(=O)O)cc(S(=O)(=O)Nc2ccc3nc(SC)sc3c2)c1OC
IC50 (Aminopeptidase N): 66.4 µM (active)

COc1ccc(-c2ccnc3nc(Sc4ncc(C(F)(F)F)cc4Cl)nn23)cc1
CC50 [3]: 36.7 µM (active)

O=S(=O)(c1ccc(F)cc1)N1C[C@@H]2N[C@H](C1)[C@H]2c1ccc(-c2ccc(F)cc2)cc1
AC50 [5]: 2.1 µM (active)

Nc1nc(-c2cccnc2)nn1C(=O)c1ccc(F)cc1
IC50 (Prothrombin): 2.01 µM (active)

CCn1c(/C=C/c2ccc(O)cc2)nc2ccccc2c1=O
IC50 [10]: 33.7 µM (active)
CC50 [11]: 100 µM (active)
AC50 [12]: 3.35 µM (active)

O=C(CN1CCC(NC(=O)c2ccccc2F)CC1)Nc1ccc2c(c1)OCO2
IC50 (Aminopeptidase N): 34 µM (active)

COc1ccc(/C=N/Nc2ccc(C(=O)O)cc2)cc1Br
IC50 (Leucine aminopeptidase): 23.4 µM (active)
EC50 [13]: < 0.16 µM (active)
AC50 [12]: 0.837 µM (active)

Reference: ChEMBL document CHEMBL1201862, “PubChem BioAssay data set” (2004)
